Data as given in US20080188659A1, “Method for Preparing Halogenated Amines” (Wyeth, priority 2007, published 2008).
Where two headings read alike, the source gives them in different places.

Legend:
human 11b-HSD1 = biological target: T1, human 11b-HSD1 (Homo sapiens, UniProt P28845); test: cell-based assay, stable CHO cell line expressing human 11b-HSD1, cortisol measured with DiscoverX HitHunter Cortisol Assay; conditions: CHO cells expressing human 11b-HSD1; serum-free media; 500 nM cortisone, 120 minutes; read-out: Human 1C50
T1 construct: expressed in transfected cells
Experimental: Compounds described herein can be tested in a cell-based assay using a stable CHO cell line expressing human 11b-HSD1. Cells are plated at 20,000 cells/well in 96 well plates and incubated overnight (12-16 hrs) at 37° C./5% CO2. Cells are treated with different concentration of compound in 90 microliter serum-free media and incubated for 30 minutes at 37° C./5% CO2. 10 ul of 5 micromolar cortisone (final concentration 500 nM) is then added to the cells and the plate is incubated at 37° C./5% CO2 for 120 minutes. 15 microliter of media is withdrawn and amount of cortisol in the media is measured using the DiscoverX HitHunter Cortisol Assay (DiscoverX corp, CA).

mouse 11b-HSD1 = biological target: T2, mouse 11b-HSD1 (Mus musculus, UniProt P50172); test: cell-based assay, stable CHO cell line expressing mouse 11b-HSD1, cortisol measured with DiscoverX HitHunter Cortisol Assay; conditions: CHO cells expressing mouse 11b-HSD1, 500 nM cortisone, 120 minutes
T2 construct: expressed in transfected cells
Experimental: To determine the potency of compounds against mouse 11b-HSD1, a stable CHO cell line expressing mouse 11b-HSD1 is used. Cells are plated at 20,000 cells/well in 96 well plates and incubated overnight (12-16 hrs) at 37° C./5% CO2. […] 10 ul of 5 micromolar cortisone (final concentration 500 nM) is then added to the cells and the plate is incubated at 37° C./5% CO2 for 120 minutes. 15 microliter of media is withdrawn and amount of cortisol in the media is measured using the DiscoverX HitHunter Cortisol Assay (DiscoverX corp, CA).

[1] = media containing 10% delipidized human serum, read-out: Mouse + Serum 1C50
[2] = serum-free media, read-out: Mouse 1C50

T1 sequence (P28845 whole entry): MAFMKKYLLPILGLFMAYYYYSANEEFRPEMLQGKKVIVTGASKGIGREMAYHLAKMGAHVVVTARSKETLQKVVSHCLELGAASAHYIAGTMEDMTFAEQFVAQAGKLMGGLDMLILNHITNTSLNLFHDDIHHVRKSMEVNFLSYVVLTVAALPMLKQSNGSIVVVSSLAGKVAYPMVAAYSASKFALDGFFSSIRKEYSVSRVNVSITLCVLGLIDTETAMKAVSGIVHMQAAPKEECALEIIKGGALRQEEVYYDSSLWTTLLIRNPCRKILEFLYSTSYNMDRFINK
T2 sequence (P50172 whole entry): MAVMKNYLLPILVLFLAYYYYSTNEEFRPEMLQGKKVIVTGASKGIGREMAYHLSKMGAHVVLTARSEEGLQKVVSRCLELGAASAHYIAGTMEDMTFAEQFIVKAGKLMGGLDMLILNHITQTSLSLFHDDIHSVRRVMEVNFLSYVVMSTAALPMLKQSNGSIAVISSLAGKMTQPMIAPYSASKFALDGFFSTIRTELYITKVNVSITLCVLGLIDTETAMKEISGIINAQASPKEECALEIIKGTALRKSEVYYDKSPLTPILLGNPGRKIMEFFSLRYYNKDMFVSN

Compound | IC50 (human 11b-HSD1) [µM] | IC50 (mouse 11b-HSD1; [1]) [µM] | IC50 (mouse 11b-HSD1; [2]) [µM]
CCN(CC)S(=O)(=O)c1cccc(C(N)(C(F)(F)F)C(F)(F)F)c1 [Example 4, 3-(1-Amino-2,2,2-trifluoro-1-trifluoromethyl-ethyl)-N,N-diethyl-benzenesulfonamide] | > 10 | > 10 | > 10
CC(C)(C)OC(=O)N(C1CCCCC1)S(=O)(=O)c1cccc(C(N)(C(F)(F)F)C(F)(F)F)c1 [Example 5, 3-(1-Amino-2,2,2-trifluoro-1-trifluoromethyl-ethyl)-N-(tert-butoxycarbonyl)-N-cyclohexyl-benzenesulfonamide] | > 10 | > 10 | > 10
CC(C)(C)OC(=O)N(Cc1ccccc1)S(=O)(=O)c1cccc(C(N)(C(F)(F)F)C(F)(F)F)c1 [Example 6, 3-(1-Amino-2,2,2-trifluoro-1-trifluoromethyl-ethyl)-N-benzyl-N-(tert-butoxycarbonyl)-benzenesulfonamide] | > 10 | > 10 | > 10
COc1ccc(N(C(=O)OC(C)(C)C)S(=O)(=O)c2cccc(C(N)(C(F)(F)F)C(F)(F)F)c2)cc1 [Example 8, 3-(1-Amino-2,2,2-trifluoro-1-trifluoromethyl-ethyl)-N-(tert-butoxycarbonyl)-N-(4-methoxy-phenyl)-benzenesulfonamide] | > 10 | > 10 | > 10
COc1ccc(N(C(=O)OC(C)(C)C)S(=O)(=O)c2ccc(C(N)(C(F)(F)F)C(F)(F)F)cc2)cc1 [Example 10, 4-(1-Amino-2,2,2-trifluoro-1-trifluoromethyl-ethyl)-N-(tert-butoxycarbonyl)-N-(4-methoxy-phenyl)-benzenesulfonamide] | > 10 | > 10 | > 10
CCN(CC)C(=O)c1cccc(C(N)(C(F)(F)F)C(F)(F)F)c1 [Example 11, 3-(1-Amino-2,2,2-trifluoro-1-trifluoromethyl-ethyl)-N,N-diethyl-benzamide] | – | 0.291 | –
CCN(CC)C(=O)c1ccc(C(N)(C(F)(F)F)C(F)(F)F)cc1 [Example 12, 4-(1-Amino-2,2,2-trifluoro-1-trifluoromethyl-ethyl)-N,N-diethyl-benzamide] | – | 0.165 | –
C[C@@H]1CN(c2ccc(C(N)(C(F)(F)F)C(F)(F)F)nc2)CCN1S(=O)(=O)c1cccc(C(C)(O)C(F)(F)F)c1 (stereo partly drawn) [Example 14, 2-(3-{[(2R)-4-{6-[1-amino-2,2,2-trifluoro-1-(trifluoromethyl)ethyl]pyridin-3-yl}-2-methylpiperazin-1-yl]sulfonyl}phenyl)-1,1,1-trifluoropropan-2-ol] | < 0.01 | – | 0.16
C[C@@H]1CN(c2ccc(C(N)(C(F)(F)F)C(F)(F)F)cc2C(F)(F)F)CCN1S(=O)(=O)c1cccc(C(C)(O)C(F)(F)F)c1 (stereo partly drawn) [Example 15, 2-(3-{[(2R)-4-{4-[1-amino-2,2,2-trifluoro-1-(trifluoromethyl)ethyl]-2-(trifluoromethyl)phenyl}-2-methylpiperazin-1-yl]sulfonyl}phenyl)-1,1,1-trifluoropropan-2-ol] | 0.08 | – | 0.2
C[C@@H]1CN(c2ccc(C(N)(C(F)(F)F)C(F)(F)F)cc2C(F)(F)F)CCN1S(=O)(=O)c1ccc(C(C)(O)C(F)(F)F)cc1 (stereo partly drawn) [Example 16, 2-{4-([(2R)-4-[4-[1-amino-2,2,2-trifluoro-1-(trifluoromethyl)ethyl]-2-(trifluoromethyl)phenyl]-2-methylpiperazin-1-yl}sulfonyl)phenyl]-1,1,1-trifluoropropan-2-ol] | 0.09 | – | < 0.1

Next, values leading:

IC50 (human 11b-HSD1) [µM] | IC50 (mouse 11b-HSD1; [1]) [µM] | IC50 (mouse 11b-HSD1; [2]) [µM] | Compound
> 10 | 3.32 | > 10 | NC(c1cccc(S(=O)(=O)N2CCCCC2)c1)(C(F)(F)F)C(F)(F)F [Example 1, 2,2,2-Trifluoro-1-[3-(piperidine-1-sulfonyl)-phenyl]-1-trifluoromethyl-ethylamine]
0.428 | 0.731 | 0.613 | NC(c1ccc(S(=O)(=O)N2CCCCC2)cc1)(C(F)(F)F)C(F)(F)F [Example 2, 2,2,2-Trifluoro-1-[4-(piperidine-1-sulfonyl)-phenyl]-1-trifluoromethyl-ethylamine]
> 10 | > 10 | > 10 | NC(c1cccc(S(=O)(=O)N2CCCC2)c1)(C(F)(F)F)C(F)(F)F [Example 3, 2,2,2-Trifluoro-1-[3-(pyrrolidine-1-sulfonyl)-phenyl]-1-trifluoromethyl-ethylamine]
2.38 | 2.69 | > 10 | NC(c1cccc(C(=O)N2CCCCC2)c1)(C(F)(F)F)C(F)(F)F [Example 7, [3-(1-Amino-2,2,2-trifluoro-1-trifluoromethyl-ethyl)-phenyl]-piperidin-1-yl-methanone]
> 10 | 8.38 | > 10 | NC(c1ccc(C(=O)N2CCCCC2)cc1)(C(F)(F)F)C(F)(F)F [Example 9, [4-(1-Amino-2,2,2-trifluoro-1-trifluoromethyl-ethyl)-phenyl]-piperidin-1-yl-methanone]
0.565 | 0.645 | 0.225 | CCN(CC)S(=O)(=O)c1ccc(C(N)(C(F)(F)F)C(F)(F)F)cc1 [Example 13, 4-(1-Amino-2,2,2-trifluoro-1-trifluoromethyl-ethyl)-N,N-diethyl-benzenesulfonamide]
